Measurements reported in PMC6211260 (Journal of Enzyme Inhibition and Medicinal Chemistry, 2018).
Where “and” joins values, the source holds several entries; their conditions need not be identical. Equal entries are not always repeated.

Assays:
CNS cancer cell lines = assay: NCI five-dose testing, subpanel mean; assay type: cell-based; settings: subpanel IV: CNS cancer
Method: (§1) Screening against the cancer cell lines was carried out at the National Cancer Institute (NCI, Bethesda, Maryland, USA) applying the standard protocol of the NCI[22].

Leukaemia cell lines = assay: NCI five-dose testing, subpanel mean; assay type: cell-based; settings: subpanel I: Leukaemia
Method: as §1

breast cancer cell lines = assay: NCI five-dose testing, subpanel mean; assay type: cell-based; settings: subpanel IX: breast cancer
Method: as §1

colon cancer cell lines = assay: NCI five-dose testing, subpanel mean; assay type: cell-based; settings: subpanel III: colon cancer
Method: as §1

melanoma cell lines = assay: NCI five-dose testing, subpanel mean; assay type: cell-based; settings: subpanel V: melanoma
Method: as §1

[1] = tested on: non-small cell lung cancer cell lines; assay: NCI five-dose testing, subpanel mean; assay type: cell-based; settings: subpanel II: non-small cell lung cancer
Method: as §1

[2] = tested on: ovarian cancer cell lines; assay: NCI five-dose testing, subpanel mean; assay type: cell-based; settings: subpanel VI: ovarian cancer
Method: as §1

[3] = tested on: prostate cancer cell lines; assay: NCI five-dose testing, subpanel mean; assay type: cell-based; settings: subpanel VIII: prostate cancer
Method: as §1

renal cancer cell lines = assay: NCI five-dose testing, subpanel mean; assay type: cell-based; settings: subpanel VII: renal cancer
Method: as §1

ABL1 (T315I) = target: T1, ABL1 (T315I) (Homo sapiens, UniProt P00519, T315I); assay: In vitro kinase screening (Kinase HotSpot); assay type: biochemical; settings: single dose of 10 µM
T1 construct: purchased Reaction Biology Corp
Text: (§2) To investigate the biological target of compound, Reaction Biology Corp. Kinase HotSpotSM service was used adopting standard assay protocol.

BRAF = target: T2, BRAF (Homo sapiens, UniProt P15056); assay: In vitro kinase screening (Kinase HotSpot); assay type: biochemical
T2 construct: purchased Reaction Biology Corp
T2 sequence (P15056 whole entry): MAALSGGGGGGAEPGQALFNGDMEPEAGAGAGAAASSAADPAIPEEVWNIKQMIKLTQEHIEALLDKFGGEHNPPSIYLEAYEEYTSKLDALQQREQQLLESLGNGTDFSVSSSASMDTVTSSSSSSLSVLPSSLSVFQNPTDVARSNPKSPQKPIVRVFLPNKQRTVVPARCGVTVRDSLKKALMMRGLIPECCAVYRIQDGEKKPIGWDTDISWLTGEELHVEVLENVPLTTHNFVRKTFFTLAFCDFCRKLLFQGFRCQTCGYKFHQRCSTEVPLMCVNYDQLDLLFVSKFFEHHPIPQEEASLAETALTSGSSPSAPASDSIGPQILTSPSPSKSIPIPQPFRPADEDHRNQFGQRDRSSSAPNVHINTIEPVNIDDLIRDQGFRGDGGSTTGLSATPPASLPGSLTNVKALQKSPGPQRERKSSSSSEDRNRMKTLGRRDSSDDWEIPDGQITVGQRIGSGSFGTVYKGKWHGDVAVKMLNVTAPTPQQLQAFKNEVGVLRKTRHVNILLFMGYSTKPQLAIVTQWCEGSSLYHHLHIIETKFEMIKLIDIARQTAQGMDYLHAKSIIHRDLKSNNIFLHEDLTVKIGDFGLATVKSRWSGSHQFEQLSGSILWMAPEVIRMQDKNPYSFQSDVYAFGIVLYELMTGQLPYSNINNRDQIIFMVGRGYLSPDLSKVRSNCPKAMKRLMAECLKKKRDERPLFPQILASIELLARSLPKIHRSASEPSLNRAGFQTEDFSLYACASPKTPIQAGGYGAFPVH
Text: as §2

BRAF (V600E) = target: T3, BRAF (V600E) (Homo sapiens, UniProt P15056, V600E); assay: In vitro kinase screening (Kinase HotSpot); assay type: biochemical
T3 construct: purchased Reaction Biology Corp
T3 sequence (P15056 whole entry V600E): as the sequence (P15056 whole entry) above, with V600E counted along it
Text: as §2

CDK2/cyclin E = target: T4, CDK2/cyclin E (Homo sapiens, UniProt P24941); assay: In vitro kinase screening (Kinase HotSpot); assay type: biochemical; settings: single dose of 10 µM
T4 construct: purchased Reaction Biology Corp
Text: as §2

EGFR = target: T5, EGFR (Homo sapiens, UniProt P00533); assay: In vitro kinase screening (Kinase HotSpot); assay type: biochemical; settings: single dose of 10 µM
T5 construct: purchased Reaction Biology Corp
Text: as §2

ERK1 = target: T6, ERK1 (Homo sapiens, UniProt P27361); assay: In vitro kinase screening (Kinase HotSpot); assay type: biochemical; settings: single dose of 10 µM
T6 construct: purchased Reaction Biology Corp
Text: as §2

ERK2/MAPK1 = target: T7, ERK2/MAPK1 (Homo sapiens, UniProt P28482); assay: In vitro kinase screening (Kinase HotSpot); assay type: biochemical; settings: single dose of 10 µM
T7 construct: purchased Reaction Biology Corp
Text: as §2

FMS = target: T8, FMS (Homo sapiens, UniProt P07333); assay: In vitro kinase screening (Kinase HotSpot); assay type: biochemical; settings: single dose of 10 µM
T8 construct: purchased Reaction Biology Corp
Text: as §2

IKKb/IKBKB = target: T9, IKKb/IKBKB (Homo sapiens, UniProt O14920); assay: In vitro kinase screening (Kinase HotSpot); assay type: biochemical; settings: single dose of 10 µM
T9 construct: purchased Reaction Biology Corp
T9 sequence (O14920 1-756): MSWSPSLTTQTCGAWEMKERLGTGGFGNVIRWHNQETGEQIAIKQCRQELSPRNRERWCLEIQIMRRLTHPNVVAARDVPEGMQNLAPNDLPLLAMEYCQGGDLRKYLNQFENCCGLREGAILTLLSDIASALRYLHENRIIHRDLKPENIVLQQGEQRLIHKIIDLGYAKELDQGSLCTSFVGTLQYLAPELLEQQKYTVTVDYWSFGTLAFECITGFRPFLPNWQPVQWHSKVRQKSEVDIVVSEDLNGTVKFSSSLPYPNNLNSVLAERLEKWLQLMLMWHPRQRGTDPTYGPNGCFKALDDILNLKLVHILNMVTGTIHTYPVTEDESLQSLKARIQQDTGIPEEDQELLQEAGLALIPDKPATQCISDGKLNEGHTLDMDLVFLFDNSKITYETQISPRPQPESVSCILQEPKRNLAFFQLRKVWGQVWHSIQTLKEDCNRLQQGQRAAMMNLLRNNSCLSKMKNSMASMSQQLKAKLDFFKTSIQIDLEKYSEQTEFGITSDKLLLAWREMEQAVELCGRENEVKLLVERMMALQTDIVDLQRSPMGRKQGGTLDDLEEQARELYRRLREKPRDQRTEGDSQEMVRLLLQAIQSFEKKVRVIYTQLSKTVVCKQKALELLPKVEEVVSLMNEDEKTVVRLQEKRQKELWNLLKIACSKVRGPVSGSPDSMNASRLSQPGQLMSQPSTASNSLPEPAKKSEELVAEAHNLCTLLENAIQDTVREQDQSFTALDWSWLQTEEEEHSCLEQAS
Text: as §2

JNK1 = target: T10, JNK1 (Homo sapiens, UniProt P45983); assay: In vitro kinase screening (Kinase HotSpot); assay type: biochemical
T10 construct: purchased Reaction Biology Corp
T10 sequence (P45983 whole entry): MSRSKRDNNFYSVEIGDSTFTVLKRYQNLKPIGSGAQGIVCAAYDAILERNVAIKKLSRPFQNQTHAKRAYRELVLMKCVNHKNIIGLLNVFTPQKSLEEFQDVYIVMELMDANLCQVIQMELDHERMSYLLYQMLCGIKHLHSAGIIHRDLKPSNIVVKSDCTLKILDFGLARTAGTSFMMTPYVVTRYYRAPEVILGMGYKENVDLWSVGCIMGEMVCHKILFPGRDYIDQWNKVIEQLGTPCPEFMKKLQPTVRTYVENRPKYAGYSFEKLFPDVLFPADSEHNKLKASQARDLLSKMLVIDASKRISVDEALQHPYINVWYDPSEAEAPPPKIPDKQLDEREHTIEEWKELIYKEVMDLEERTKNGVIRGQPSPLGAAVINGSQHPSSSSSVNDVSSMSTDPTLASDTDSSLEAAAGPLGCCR
Text: as §2

JNK2 = target: T11, JNK2 (Homo sapiens, UniProt P45984); assay: In vitro kinase screening (Kinase HotSpot); assay type: biochemical
T11 construct: purchased Reaction Biology Corp
T11 sequence (P45984 whole entry): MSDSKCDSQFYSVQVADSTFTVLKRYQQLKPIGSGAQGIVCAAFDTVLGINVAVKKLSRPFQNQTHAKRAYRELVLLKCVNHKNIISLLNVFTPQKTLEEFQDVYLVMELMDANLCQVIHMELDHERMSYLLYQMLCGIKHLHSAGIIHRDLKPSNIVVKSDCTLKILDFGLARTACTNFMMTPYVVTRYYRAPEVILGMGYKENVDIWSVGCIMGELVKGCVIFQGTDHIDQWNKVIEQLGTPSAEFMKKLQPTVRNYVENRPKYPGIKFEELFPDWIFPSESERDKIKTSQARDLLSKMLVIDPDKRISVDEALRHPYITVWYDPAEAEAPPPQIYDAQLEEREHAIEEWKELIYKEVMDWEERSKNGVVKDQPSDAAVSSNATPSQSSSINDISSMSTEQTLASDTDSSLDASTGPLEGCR
Text: as §2

JNK3 = target: T12, JNK3 (Homo sapiens, UniProt P53779); assay: In vitro kinase screening (Kinase HotSpot); assay type: biochemical; settings: single dose of 10 µM
T12 construct: purchased Reaction Biology Corp
Text: as §2

KDR/VEGFR2 = target: T13, KDR/VEGFR2 (Homo sapiens, UniProt P35968); assay: In vitro kinase screening (Kinase HotSpot); assay type: biochemical; settings: single dose of 10 µM
T13 construct: purchased Reaction Biology Corp
Text: as §2

MEK1 = target: T14, MEK1 (Homo sapiens, UniProt Q02750); assay: In vitro kinase screening (Kinase HotSpot); assay type: biochemical; settings: single dose of 10 µM
T14 construct: purchased Reaction Biology Corp
Text: as §2

MEK2 = target: T15, MEK2 (Homo sapiens, UniProt P36507); assay: In vitro kinase screening (Kinase HotSpot); assay type: biochemical; settings: single dose of 10 µM
T15 construct: purchased Reaction Biology Corp
Text: as §2

MKK6 = target: T16, MKK6 (Homo sapiens, UniProt P52564); assay: In vitro kinase screening (Kinase HotSpot); assay type: biochemical; settings: single dose of 10 µM
T16 construct: purchased Reaction Biology Corp
Text: as §2

P38a/MAPK14 = target: T17, P38a/MAPK14 (Homo sapiens, UniProt Q16539); assay: In vitro kinase screening (Kinase HotSpot); assay type: biochemical
T17 construct: purchased Reaction Biology Corp
T17 sequence (Q16539 whole entry): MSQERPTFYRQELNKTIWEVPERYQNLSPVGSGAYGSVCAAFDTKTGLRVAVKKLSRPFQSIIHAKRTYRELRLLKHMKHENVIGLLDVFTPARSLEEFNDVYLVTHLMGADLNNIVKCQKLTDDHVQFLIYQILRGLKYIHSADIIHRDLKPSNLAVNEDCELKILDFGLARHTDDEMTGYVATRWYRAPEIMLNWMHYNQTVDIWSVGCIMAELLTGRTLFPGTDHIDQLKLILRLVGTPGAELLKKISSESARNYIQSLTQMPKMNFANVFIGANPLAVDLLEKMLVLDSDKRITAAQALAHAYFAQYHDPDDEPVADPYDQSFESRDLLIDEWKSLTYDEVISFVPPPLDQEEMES
Text: as §2

RAF1 = target: T18, RAF1 (Homo sapiens, UniProt P04049); assay: In vitro kinase screening (Kinase HotSpot); assay type: biochemical
T18 construct: purchased Reaction Biology Corp
T18 sequence (P04049 whole entry): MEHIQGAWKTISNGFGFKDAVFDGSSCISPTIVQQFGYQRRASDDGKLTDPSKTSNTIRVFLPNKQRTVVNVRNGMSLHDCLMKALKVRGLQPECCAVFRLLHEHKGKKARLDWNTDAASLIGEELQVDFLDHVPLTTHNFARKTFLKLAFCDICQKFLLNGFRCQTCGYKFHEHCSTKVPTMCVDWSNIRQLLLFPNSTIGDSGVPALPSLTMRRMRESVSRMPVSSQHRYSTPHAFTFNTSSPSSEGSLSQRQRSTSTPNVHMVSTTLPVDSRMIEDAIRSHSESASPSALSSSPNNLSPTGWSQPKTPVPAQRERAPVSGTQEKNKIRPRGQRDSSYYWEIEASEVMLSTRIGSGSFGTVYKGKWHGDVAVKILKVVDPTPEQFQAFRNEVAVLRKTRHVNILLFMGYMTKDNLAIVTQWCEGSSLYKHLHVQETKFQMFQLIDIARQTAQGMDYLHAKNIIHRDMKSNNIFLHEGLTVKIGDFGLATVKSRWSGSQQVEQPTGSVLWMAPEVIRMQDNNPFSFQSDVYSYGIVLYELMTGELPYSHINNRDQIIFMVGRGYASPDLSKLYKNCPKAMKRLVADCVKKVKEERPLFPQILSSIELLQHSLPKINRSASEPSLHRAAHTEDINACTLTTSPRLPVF
Text: as §2

ROS/ROS1 = target: T19, ROS/ROS1 (Homo sapiens, UniProt P08922); assay: In vitro kinase screening (Kinase HotSpot); assay type: biochemical; settings: single dose of 10 µM
T19 construct: purchased Reaction Biology Corp
T19 sequence (P08922 28-2347): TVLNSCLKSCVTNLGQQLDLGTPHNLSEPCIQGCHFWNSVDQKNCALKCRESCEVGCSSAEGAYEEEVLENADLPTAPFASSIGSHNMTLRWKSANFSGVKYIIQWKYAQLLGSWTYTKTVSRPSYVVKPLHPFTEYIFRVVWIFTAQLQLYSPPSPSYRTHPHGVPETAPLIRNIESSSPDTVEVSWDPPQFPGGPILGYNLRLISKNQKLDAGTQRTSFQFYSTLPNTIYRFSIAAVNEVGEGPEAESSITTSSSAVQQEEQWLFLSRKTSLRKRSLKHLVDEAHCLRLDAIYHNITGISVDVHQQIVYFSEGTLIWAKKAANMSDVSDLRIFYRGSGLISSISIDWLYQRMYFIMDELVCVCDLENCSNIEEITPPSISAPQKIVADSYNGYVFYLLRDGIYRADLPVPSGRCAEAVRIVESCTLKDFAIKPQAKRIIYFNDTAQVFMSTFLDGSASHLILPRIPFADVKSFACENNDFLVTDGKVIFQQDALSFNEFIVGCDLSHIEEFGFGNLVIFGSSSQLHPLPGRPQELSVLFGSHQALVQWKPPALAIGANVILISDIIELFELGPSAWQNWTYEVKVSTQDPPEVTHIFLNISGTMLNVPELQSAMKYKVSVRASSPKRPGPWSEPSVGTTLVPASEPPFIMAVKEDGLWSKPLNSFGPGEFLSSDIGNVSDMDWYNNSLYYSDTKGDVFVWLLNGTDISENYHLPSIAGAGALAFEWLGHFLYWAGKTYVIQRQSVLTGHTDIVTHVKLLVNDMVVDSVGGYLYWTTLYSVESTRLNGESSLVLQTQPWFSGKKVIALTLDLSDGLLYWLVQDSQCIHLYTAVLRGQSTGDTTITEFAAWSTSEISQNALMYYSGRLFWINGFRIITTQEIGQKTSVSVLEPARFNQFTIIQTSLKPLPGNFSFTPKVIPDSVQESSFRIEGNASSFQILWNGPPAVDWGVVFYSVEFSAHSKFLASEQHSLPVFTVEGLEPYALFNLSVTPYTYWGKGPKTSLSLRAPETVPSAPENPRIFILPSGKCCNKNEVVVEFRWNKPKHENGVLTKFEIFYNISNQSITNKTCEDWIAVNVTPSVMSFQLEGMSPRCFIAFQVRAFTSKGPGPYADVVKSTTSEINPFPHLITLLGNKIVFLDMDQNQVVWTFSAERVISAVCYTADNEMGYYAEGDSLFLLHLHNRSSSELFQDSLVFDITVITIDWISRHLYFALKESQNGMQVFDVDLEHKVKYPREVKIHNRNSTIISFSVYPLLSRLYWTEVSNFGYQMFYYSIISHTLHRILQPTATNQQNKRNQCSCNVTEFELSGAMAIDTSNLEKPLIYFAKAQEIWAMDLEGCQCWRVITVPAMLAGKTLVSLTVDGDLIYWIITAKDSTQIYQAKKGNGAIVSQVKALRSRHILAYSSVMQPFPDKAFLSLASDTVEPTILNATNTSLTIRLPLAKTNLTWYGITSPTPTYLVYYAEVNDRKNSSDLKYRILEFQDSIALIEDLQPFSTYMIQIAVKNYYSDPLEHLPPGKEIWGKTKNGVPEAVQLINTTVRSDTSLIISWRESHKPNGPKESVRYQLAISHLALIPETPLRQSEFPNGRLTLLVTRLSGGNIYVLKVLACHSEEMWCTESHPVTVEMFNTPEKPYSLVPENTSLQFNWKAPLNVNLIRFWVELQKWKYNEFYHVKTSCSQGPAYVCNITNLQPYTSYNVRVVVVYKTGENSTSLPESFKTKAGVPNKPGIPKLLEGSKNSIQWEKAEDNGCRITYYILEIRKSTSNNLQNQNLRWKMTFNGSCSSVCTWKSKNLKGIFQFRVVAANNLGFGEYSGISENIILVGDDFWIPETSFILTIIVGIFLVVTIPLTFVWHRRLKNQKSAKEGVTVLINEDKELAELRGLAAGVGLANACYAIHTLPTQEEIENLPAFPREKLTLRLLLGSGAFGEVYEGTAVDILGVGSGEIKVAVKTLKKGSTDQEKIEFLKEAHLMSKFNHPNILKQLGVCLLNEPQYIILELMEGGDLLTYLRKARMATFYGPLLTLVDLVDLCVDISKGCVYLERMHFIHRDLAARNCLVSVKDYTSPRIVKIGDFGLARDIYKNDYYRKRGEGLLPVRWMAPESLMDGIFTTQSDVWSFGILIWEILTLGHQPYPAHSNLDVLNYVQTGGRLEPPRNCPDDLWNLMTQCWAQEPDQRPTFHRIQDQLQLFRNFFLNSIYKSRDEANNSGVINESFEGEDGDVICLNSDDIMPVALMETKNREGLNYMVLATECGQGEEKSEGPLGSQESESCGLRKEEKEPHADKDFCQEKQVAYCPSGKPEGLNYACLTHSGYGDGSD
Text: as §2

mTOR/FRAP1 = target: T20, mTOR/FRAP1 (Homo sapiens, UniProt P42345); assay: In vitro kinase screening (Kinase HotSpot); assay type: biochemical; settings: single dose of 10 µM
T20 construct: purchased Reaction Biology Corp
Text: as §2

Plasma stability = assay type: in vitro ADME; settings: 37 °C, 10 µM
Method: About 10 µM of compound 2l was mixed with human plasma and rat plasma and the mixture was shaked at 37 °C for 30 min and 120 min. After each time interval, acetonitrile was added and the mixture was centrifugated (14000 rpm, 4 °C). The supernatant was injected into the LC-MS to detect the remaining amount of compound 2l.

## O=S(=O)(NCCCNc1cc(-c2cn(-c3ccccc3)nc2-c2cccc(O)c2)ccn1)c1ccc(Cl)cc1 [Compound 2l, 4-Chloro-N-(3-((4-(3-(3-hydroxyphenyl)-1-phenyl-1H-pyrazol-4-yl)pyridin-2-yl)amino)propyl) benzenesulfonamide]
CNS cancer cell lines
  IC50: 1.65 µM
Leukaemia cell lines
  IC50: 1.44 µM
Breast cancer cell lines
  IC50: 1.58 µM
Colon cancer cell lines
  IC50: 1.51 µM
Melanoma cell lines
  IC50: 1.68 µM
[1]
  IC50: 2.32 µM
[2]
  IC50: 2.09 µM
[3]
  IC50: 2.28 µM
Renal cancer cell lines
  IC50: 2.06 µM
ABL1 (T315I)
  Inhibition %: –10.98 ± 0.40%
BRAF
  IC50: 4.87 ± 0.07 µM
BRAF; single dose of 10 µM
  Inhibition %: 72.56 ± 0.27%
BRAF (V600E); BRAF(V600E)
  IC50: 1.16 ± 0.04 µM
BRAF (V600E); single dose of 10 µM, BRAF (V599E) in Table 6, BRAF (V600E) in text
  Inhibition %: 93.67 ± 0.47%
CDK2/cyclin E
  Inhibition %: 22.92 ± 1.14%
EGFR
  Inhibition %: 11.74 ± 4.78%
ERK1
  Inhibition %: 13.07 ± 0.93%
ERK2/MAPK1
  Inhibition %: 22.21 ± 0.41%
FMS
  Inhibition %: 24.24 ± 1.14%
IKKb/IKBKB
  Inhibition %: −2.94 ± 0.17%
JNK1
  IC50: 0.35 ± 0.04 µM
JNK1; single dose of 10 µM, 10 µM
  Inhibition %: 99.02% and 99.05 ± 0.03%
JNK2
  IC50: 0.36 ± 0.07 µM
JNK2; single dose of 10 µM, 10 µM
  Inhibition %: 98.47% and 98.49 ± 0.02%
JNK3
  Inhibition %: 89.50 ± 0.03%
KDR/VEGFR2
  Inhibition %: 10.05 ± 0.10%
MEK1
  Inhibition %: 0.56 ± 1.08%
MEK2
  Inhibition %: 11.73 ± 1.60%
MKK6
  Inhibition %: 16.65 ± 0.11%
P38a/MAPK14; MAPK14
  IC50: 1.13 ± 0.09 µM
P38a/MAPK14; single dose of 10 µM, P38a/MAPK14
  Inhibition %: 86.54 ± 0.61%
RAF1
  IC50: 3.52 ± 0.01 µM
ROS/ROS1
  Inhibition %: 24.03 ± 0.51%
mTOR/FRAP1
  Inhibition %: 0.72 ± 0.32%
Plasma stability; Human plasma, 30 min
  Plasma stability, remaining unchanged: 100%
Plasma stability; Human plasma, 30 min, listed as 2 l
  Plasma stability, remaining unchanged: 100%
Plasma stability; Human plasma, 120 min
  Plasma stability, remaining unchanged: 95.3%
Plasma stability; Human plasma, 120 min, listed as 2 l
  Plasma stability, remaining unchanged: 95.3%
Plasma stability; Rat plasma, 30 min
  Plasma stability, remaining unchanged: 100%
Plasma stability; Rat plasma, 120 min
  Plasma stability, remaining unchanged: 100%
